Assay results published in PubChem BioAssay AID1963826 (Molecular Pharmacology Branch, DTP, NCI, 2024).

Test system: 926638-142-R-J1-PDC complex spheroid viability
Test: Anticancer human tumor 926638-142-R-J1-PDC patient-derived endometrial carcinoma cell line growth inhibition [POLQ]
Settings: for IC50: curve of first compound; for viability, T/C: stronger effect = lower value
Method in brief: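 Growth inhibition in 3D: complex spheroids (tumor PDC, HUVEC, MSC) treated with POLQ inhibitor combinations; where Cmax unknown, highest tested concentration 10 microM, except SN-38 at 1 microM.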
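Further: spheroids exposed to drugs for one week before readout.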
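Wherever viability, T/C is given: percent viability relative to DMSO vehicle control wells set as 100%.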

CC(=O)O[C@H]1C(=O)[C@@]2(C)[C@H]([C@H](OC(=O)c3ccccc3)[C@]3(O)C[C@H](OC(=O)[C@H](O)[C@@H](NC(=O)c4ccccc4)c4ccccc4)C(C)=C1C3(C)C)[C@]1(OC(C)=O)CO[C@@H]1C[C@@H]2O + Nc1ccc(C#CCN(C(=O)Cc2ncc(C(F)(F)F)cc2C(F)(F)F)c2ccc(F)cc2)nn1
IC50 (second compound 0.0316 µM): 0.433 µM
IC50 (second compound 0.1 µM): 1.3 µM
IC50 (second compound 0.316 µM): 0.458 µM
IC50 (second compound 1 µM): > 3 µM
IC50 (second compound 3.16 µM): 1.94 µM
IC50 (second compound 10 µM): 0.139 µM
viability, T/C (second compound 0.0316 µM, first compound 0.00949 µM): 85.1%
viability, T/C (second compound 0.0316 µM, first compound 0.03 µM): 62.4%
viability, T/C (second compound 0.0316 µM, first compound 0.0949 µM): 56.9%
viability, T/C (second compound 0.0316 µM, first compound 0.3 µM): 50.7%
viability, T/C (second compound 0.0316 µM, first compound 0.949 µM): 47.9%
viability, T/C (second compound 0.0316 µM, first compound 3 µM): 48%
viability, T/C (second compound 0.1 µM, first compound 0.00949 µM): 84.3%
viability, T/C (second compound 0.1 µM, first compound 0.03 µM): 76.3%
viability, T/C (second compound 0.1 µM, first compound 0.0949 µM): 58.2%
viability, T/C (second compound 0.1 µM, first compound 0.3 µM): 69.8%
viability, T/C (second compound 0.1 µM, first compound 0.949 µM): 51%
viability, T/C (second compound 0.1 µM, first compound 3 µM): 42.9%
viability, T/C (second compound 0.316 µM, first compound 0.00949 µM): 91.4%
viability, T/C (second compound 0.316 µM, first compound 0.03 µM): 72.3%
viability, T/C (second compound 0.316 µM, first compound 0.0949 µM): 57.5%
viability, T/C (second compound 0.316 µM, first compound 0.3 µM): 47.7%
viability, T/C (second compound 0.316 µM, first compound 0.949 µM): 50.9%
viability, T/C (second compound 0.316 µM, first compound 3 µM): 45.2%
viability, T/C (second compound 1 µM, first compound 0.00949 µM): 79.3%
viability, T/C (second compound 1 µM, first compound 0.03 µM): 71.3%
viability, T/C (second compound 1 µM, first compound 0.0949 µM): 57%
viability, T/C (second compound 1 µM, first compound 0.3 µM): 51.8%
viability, T/C (second compound 1 µM, first compound 0.949 µM): 50.7%
viability, T/C (second compound 1 µM, first compound 3 µM): 50.8%
viability, T/C (second compound 3.16 µM, first compound 0.00949 µM): 82.7%
viability, T/C (second compound 3.16 µM, first compound 0.03 µM): 65%
viability, T/C (second compound 3.16 µM, first compound 0.0949 µM): 53.6%
viability, T/C (second compound 3.16 µM, first compound 0.3 µM): 53.1%
viability, T/C (second compound 3.16 µM, first compound 0.949 µM): 52.8%
viability, T/C (second compound 3.16 µM, first compound 3 µM): 47.3%
viability, T/C (second compound 10 µM, first compound 0.00949 µM): 76.3%
viability, T/C (second compound 10 µM, first compound 0.03 µM): 60.7%
viability, T/C (second compound 10 µM, first compound 0.0949 µM): 50.4%
viability, T/C (second compound 10 µM, first compound 0.3 µM): 49%
viability, T/C (second compound 10 µM, first compound 0.949 µM): 46.9%
viability, T/C (second compound 10 µM, first compound 3 µM): 51.8%

CCc1c2c(nc3ccc(O)cc13)-c1cc3c(c(=O)n1C2)COC(=O)[C@]3(O)CC + Nc1ccc(C#CCN(C(=O)Cc2ncc(C(F)(F)F)cc2C(F)(F)F)c2ccc(F)cc2)nn1
IC50 (second compound 0.0316 µM): 0.00814 µM
IC50 (second compound 0.1 µM): 0.0103 µM
IC50 (second compound 0.316 µM): 0.0137 µM
IC50 (second compound 1 µM): 0.0116 µM
IC50 (second compound 3.16 µM): 0.00709 µM
IC50 (second compound 10 µM): 0.00856 µM
viability, T/C (second compound 0.0316 µM, first compound 0.00316 µM): 54.4%
viability, T/C (second compound 0.0316 µM, first compound 0.01 µM): 52.5%
viability, T/C (second compound 0.0316 µM, first compound 0.0316 µM): 32.8%
viability, T/C (second compound 0.0316 µM, first compound 0.1 µM): 27.6%
viability, T/C (second compound 0.0316 µM, first compound 0.316 µM): 15.2%
viability, T/C (second compound 0.0316 µM, first compound 1 µM): 11.2%
viability, T/C (second compound 0.1 µM, first compound 0.00316 µM): 67.3%
viability, T/C (second compound 0.1 µM, first compound 0.01 µM): 49.8%
viability, T/C (second compound 0.1 µM, first compound 0.0316 µM): 36.5%
viability, T/C (second compound 0.1 µM, first compound 0.1 µM): 24.9%
viability, T/C (second compound 0.1 µM, first compound 0.316 µM): 17.3%
viability, T/C (second compound 0.1 µM, first compound 1 µM): 10.2%
viability, T/C (second compound 0.316 µM, first compound 0.00316 µM): 69.9%
viability, T/C (second compound 0.316 µM, first compound 0.01 µM): 56.9%
viability, T/C (second compound 0.316 µM, first compound 0.0316 µM): 33.7%
viability, T/C (second compound 0.316 µM, first compound 0.1 µM): 24.6%
viability, T/C (second compound 0.316 µM, first compound 0.316 µM): 14.9%
viability, T/C (second compound 0.316 µM, first compound 1 µM): 10.4%
viability, T/C (second compound 1 µM, first compound 0.00316 µM): 60%
viability, T/C (second compound 1 µM, first compound 0.01 µM): 53.9%
viability, T/C (second compound 1 µM, first compound 0.0316 µM): 35.4%
viability, T/C (second compound 1 µM, first compound 0.1 µM): 24.6%
viability, T/C (second compound 1 µM, first compound 0.316 µM): 15.4%
viability, T/C (second compound 1 µM, first compound 1 µM): 10.5%
viability, T/C (second compound 3.16 µM, first compound 0.00316 µM): 60.3%
viability, T/C (second compound 3.16 µM, first compound 0.01 µM): 46.7%
viability, T/C (second compound 3.16 µM, first compound 0.0316 µM): 30.6%
viability, T/C (second compound 3.16 µM, first compound 0.1 µM): 20.6%
viability, T/C (second compound 3.16 µM, first compound 0.316 µM): 17.6%
viability, T/C (second compound 3.16 µM, first compound 1 µM): 7.92%
viability, T/C (second compound 10 µM, first compound 0.00316 µM): 64.2%
viability, T/C (second compound 10 µM, first compound 0.01 µM): 47.4%
viability, T/C (second compound 10 µM, first compound 0.0316 µM): 34.5%
viability, T/C (second compound 10 µM, first compound 0.1 µM): 23.1%
viability, T/C (second compound 10 µM, first compound 0.316 µM): 15.3%
viability, T/C (second compound 10 µM, first compound 1 µM): 10.2%
